Data set [1] can be described thus: Human liver microsome stability. The settings on record: pooled human liver microsomes 0.5 mg/mL, 1 μM compound, NADPH 1 mM, pH 7.4, 37° C., 0-60 min. It is filed as in vitro ADME. The essentials: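 Pooled human liver microsomes (0.5 mg/mL) incubated at 37 °C with 1 μM compound in 0.1 M phosphate pH 7.4, 1 mM MgCl2; 1 mM NADPH starts reaction. Samples quenched in acetonitrile at 0–60 min, analysed by LC-MS against internal standard; half-life from slope of ln peak-area ratio versus time.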
For orientation: Liver microsomes are a subcellular fraction often used to study metabolism.

Another data set has as its system HBV. The experiment in a line: Anti-HBV activity in HepG2.117 cell line (intracellular HBV DNA, real-time PCR). It is filed as cell-based, hepatitis B virus. The settings on record: HepG2.117 cells, HBV replication induced, 3 days of treatment, intracellular HBV DNA by real-time PCR. The essentials: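 HepG2.117 cells (Tet-off, doxycycline-free HBV replication) induced for HBV replication, then exposed to serially diluted compound for 3 days. Intracellular HBV DNA quantified by real-time PCR with HBV-specific primers and probe.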
Background: Quantitative PCR measures a nucleic acid by following its amplification.

A further data set has as its system HepG2 or HepG2.117 cells. The experiment in a line: Cytotoxicity, ATPlite Luminescence Assay. Particulars: 3-days incubation unless marked with *, ATPlite viability. It is filed as cell-based, human. The essentials: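 HepG2/HepG2.117; compound exposure 3–4 d; viability readout = ATPlite luminescence.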
On the technique in general: In ATP-based viability assays light output follows the ATP content of the culture.

A word on the EC50: it is the midpoint of the concentration-response curve. By CC50 is commonly meant the concentration that lowers cell viability or growth by half. A high value points to lower toxicity to the cells.

Structures are written as SMILES. Where only a bound is given, the exact number is not on record here.

On to `CNC(=O)[C@@H]1CN(C(C)c2ccc(C3CC3)nc2)C(=O)c2c3c(nn21)C[C@@H](C)N(C(=O)c1ccc(Cl)c(Cl)c1)C3` (single isomer, unassigned) [Compound 32B, (3R,7S)-9-((S*)-1-(6-cyclopropylpyridin-3-yl)ethyl)-2-(3,4-dichlorobenzoyl)-N,3-dimethyl-10-oxo-1,2,3,4,7,8,9,10-octahydropyrido[4′,3′:3,4]pyrazolo[1,5-a]pyrazine-7-carboxamide], for which the “HLM Metabolism t1/2” value in data set [1] was >3 h. The compound further displayed an EC50 in the data set on HBV of 0.011 µM. Also, the CC50 in the data set with HepG2 or HepG2.117 cells worked out at 48.7 µM.
As to `CNC(=O)[C@@H]1CN(C(C)c2ccc(NCC(F)(F)F)nc2)C(=O)c2c3c(nn21)C[C@@H](C)N(C(=O)c1ccc(Cl)c(Cl)c1)C3` (single isomer, unassigned) [Compound 33B, (3R,7S)-2-(3,4-dichlorobenzoyl)-N,3-dimethyl-10-oxo-9-((S*)-1-(6-((2,2,2-trifluoroethyl)amino)pyridin-3-yl)ethyl)-1,2,3,4,7,8,9,10-octahydropyrido[4′,3′:3,4]pyrazolo[1,5-a]pyrazine-7-carboxamide], the “HLM Metabolism t1/2” value in data set [1] is >3 h. In the data set on HBV, this compound came in with an EC50 of 0.055 µM. Also, the CC50 in the data set with HepG2 or HepG2.117 cells was > 50 µM.
As to `CNC(=O)[C@@H]1CN(C(C)c2ccc(-c3c(C)noc3C)nc2)C(=O)c2c3c(nn21)C[C@@H](C)N(C(=O)c1ccc(Cl)c(Cl)c1)C3` (single isomer, unassigned) [Compound 35B, (3R,7S)-2-(3,4-dichlorobenzoyl)-9-((S*)-1-(6-(3,5-dimethylisoxazol-4-yl)pyridin-3-yl)ethyl)-N,3-dimethyl-10-oxo-1,2,3,4,7,8,9,10-octahydropyrido[4′,3′:3,4]pyrazolo[1,5-a]pyrazine-7-carboxamide], the “HLM Metabolism t1/2” value in data set [1] turned out to be 2.17 h. The compound further displayed an EC50 in the data set with HBV of 0.082 µM. For the same compound, the CC50 in the data set on HepG2 or HepG2.117 cells was > 50 µM.
For `CNC(=O)[C@@H]1CN(C(C)c2ccc(C(F)F)nc2)C(=O)c2c3c(nn21)C[C@@H](C)N(C(=O)c1ccc(Cl)c(Cl)c1)C3` (single isomer, unassigned) [Compound 36B, (3R,7S)-2-(3,4-dichlorobenzoyl)-9-((S*)-1-(6-(difluoromethyl)pyridin-3-yl)ethyl)-N,3-dimethyl-10-oxo-1,2,3,4,7,8,9,10-octahydropyrido[4′,3′:3,4]pyrazolo[1,5-a]pyrazine-7-carboxamide], in that order: >3 h, 0.05 µM and > 50 µM.
For `CNC(=O)[C@@H]1CN(C(C)c2ccccn2)C(=O)c2c3c(nn21)C[C@@H](C)N(C(=O)c1ccc(Cl)c(Cl)c1)C3` (single isomer, unassigned) [Compound 37B, (3R,7S)-2-(3,4-dichlorobenzoyl)-N,3-dimethyl-10-oxo-9-((S*)-1-(pyridin-2-yl)ethyl)-1,2,3,4,7,8,9,10-octahydropyrido[4′,3′:3,4]pyrazolo[1,5-a]pyrazine-7-carboxamide], in data set [1], the “HLM Metabolism t1/2” value was >3 h. The midpoint of the response in the data set with HBV, the EC50, lay at 0.067 µM. Besides, the CC50 with HepG2 or HepG2.117 cells is > 50 µM.
In the case of `CNC(=O)[C@@H]1CN(C(C)c2cccc(Cl)n2)C(=O)c2c3c(nn21)C[C@@H](C)N(C(=O)c1ccc(Cl)c(Cl)c1)C3` (single isomer, unassigned) [Compound 38B, (3R,7S)-9-((S*)-1-(6-chloropyridin-2-yl)ethyl)-2-(3,4-dichlorobenzoyl)-N,3-dimethyl-10-oxo-1,2,3,4,7,8,9,10-octahydropyrido[4′,3′:3,4]pyrazolo[1,5-a]pyrazine-7-carboxamide], the “HLM Metabolism t1/2” value in data set [1] is 2.4 h. The same compound showed an EC50 in the data set on HBV of 0.04 µM. The CC50 with HepG2 or HepG2.117 cells was > 50 µM.
For `CNC(=O)[C@@H]1CN(C(C)c2ccc(C(C)(C)O)cn2)C(=O)c2c3c(nn21)C[C@@H](C)N(C(=O)c1ccc(Cl)c(Cl)c1)C3` (single isomer, unassigned) [Compound 39B, (3R,7S)-2-(3,4-dichlorobenzoyl)-9-((S*)-1-(5-(2-hydroxypropan-2-yl)pyridin-2-yl)ethyl)-N,3-dimethyl-10-oxo-1,2,3,4,7,8,9,10-octahydropyrido[4′,3′:3,4]pyrazolo[1,5-a]pyrazine-7-carboxamide], in that order: >3 h, 0.12 µM and > 50 µM.
`CNC(=O)[C@@H]1CN(C(C)c2ccc(-n3cncn3)cn2)C(=O)c2c3c(nn21)C[C@@H](C)N(C(=O)c1ccc(Cl)c(Cl)c1)C3` (single isomer, unassigned) [Compound 40B, (3R,7S)-9-((S*)-1-(5-(1H-1,2,4-triazol-1-yl)pyridin-2-yl)ethyl)-2-(3,4-dichlorobenzoyl)-N,3-dimethyl-10-oxo-1,2,3,4,7,8,9,10-octahydropyrido[4′,3′:3,4]pyrazolo[1,5-a]pyrazine-7-carboxamide]: the “HLM Metabolism t1/2” value in data set [1] was >3 h. In the data set with HBV, this compound displayed an EC50 of 0.097 µM. The CC50 with HepG2 or HepG2.117 cells is > 50 µM.
For `CNC(=O)[C@@H]1CN(C(C)c2ccc(-n3ncnc3C)cn2)C(=O)c2c3c(nn21)C[C@@H](C)N(C(=O)c1ccc(Cl)c(Cl)c1)C3` (single isomer, unassigned) [Compound 41B, (3R,7S)-2-(3,4-dichlorobenzoyl)-N,3-dimethyl-9-((S*)-1-(5-(5-methyl-1H-1,2,4-triazol-1-yl)pyridin-2-yl)ethyl)-10-oxo-1,2,3,4,7,8,9,10-octahydropyrido[4′,3′:3,4] pyrazolo[1,5-a]pyrazine-7-carboxamide], in that order: >3 h, 0.1 µM and > 50 µM.
Turning to `CNC(=O)[C@@H]1CN(C(C)c2cc(F)ccn2)C(=O)c2c3c(nn21)C[C@@H](C)N(C(=O)c1ccc(Cl)c(Cl)c1)C3` (single isomer, unassigned) [Compound 42B, (3R,7S)-2-(3,4-dichlorobenzoyl)-9-((S*)-1-(4-fluoropyridin-2-yl)ethyl)-N,3-dimethyl-10-oxo-1,2,3,4,7,8,9,10-octahydropyrido[4′,3′:3,4]pyrazolo[1,5-a]pyrazine-7-carboxamide], the “HLM Metabolism t1/2” value in data set [1] was >3 h. The same compound displayed an EC50 with HBV of 0.02 µM. The cytotoxic concentration (CC50) in the data set with HepG2 or HepG2.117 cells is > 50 µM.
In the case of `CNC(=O)[C@@H]1CN(C(C)c2cnc(C(F)(F)F)nc2)C(=O)c2c3c(nn21)C[C@@H](C)N(C(=O)c1ccc(Cl)c(C(F)(F)F)c1)C3` (single isomer, unassigned) [Compound 43B, (3R,7S)-2-(4-chloro-3-(trifluoromethyl)benzoyl)-N,3-dimethyl-10-oxo-9-((S*)-1-(2-(trifluoromethyl)pyrimidin-5-yl)ethyl)-1,2,3,4,7,8,9,10-octahydropyrido[4′,3′:3,4]pyrazolo[1,5-a]pyrazine-7-carboxamide], the “HLM Metabolism t1/2” value in data set [1] is >3 h. Moreover, the EC50 in the data set on HBV was determined as 0.057 µM. Also, the CC50 in the data set with HepG2 or HepG2.117 cells is > 50 µM.
As to `CNC(=O)[C@@H]1CN(C(C)c2nc(C(F)(F)F)cs2)C(=O)c2c3c(nn21)C[C@@H](C)N(C(=O)c1ccc(Cl)c(Cl)c1)C3` (single isomer, unassigned) [Compound 44B, (3R,7S)-2-(3,4-dichlorobenzoyl)-N,3-dimethyl-10-oxo-9-((S*)-1-(4-(trifluoromethyl)thiazol-2-yl)ethyl)-1,2,3,4,7,8,9,10-octahydropyrido[4′,3′:3,4]pyrazolo[1,5-a]pyrazine-7-carboxamide], the “HLM Metabolism t1/2” value in data set [1] was >3 h. This compound yielded an EC50 in the data set on HBV of 0.091 µM. Further, the CC50 in the data set on HepG2 or HepG2.117 cells was > 50 µM.
